This is an account of results in patent publication US20260250278A1, “PHENYL-SUBSTITUTED DIHYDRONAPHTHYRIDINE COMPOUNDS, AND PREPARATION AND USE THEREOF” (SUZHONG PHARMACEUTICAL GROUP CO., LTD., priority 2022, published 2026).

SMILES strings stand for the structures. pIC50: −log10 of the molar value.

A word on the pIC50: it is the IC50 on a negative log10 scale, so that one unit is a factor of ten.

The assay concerns the target T1, mineralocorticoid receptor (MR) (Homo sapiens, UniProt P08235).
T1 construct: expressed in transfected cells
T1 sequence (P08235 726-964 limits assumed): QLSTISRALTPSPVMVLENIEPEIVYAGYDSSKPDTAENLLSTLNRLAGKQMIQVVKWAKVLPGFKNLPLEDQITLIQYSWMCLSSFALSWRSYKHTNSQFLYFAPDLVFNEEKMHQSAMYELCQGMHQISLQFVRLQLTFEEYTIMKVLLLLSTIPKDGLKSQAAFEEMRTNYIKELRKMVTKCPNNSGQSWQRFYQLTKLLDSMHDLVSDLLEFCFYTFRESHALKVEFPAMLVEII
Nature of the assay: MR Gal4-LBD luciferase reporter gene assay in HEK293T cells (antagonism of 0.8 nM aldosterone). Format: cell-based. From the text: By the characteristic of chemiluminescence reaction produced by combination of luciferase and substrate, a Gal4 DNA binding domain (DBD) fused plasmid containing a mineralocorticoid receptor (MR) ligand binding domain (LBD) and a firefly luciferase reporter gene plasmid under the control of Gal4 UAS (upstream activation sequence) were transfected into human embryonic kidney cells (HEK293). Changes of […] were judged by a level of firefly luciferase activity.
All compounds were dissolved in DMSO to prepare a 25 mM stock solution, and stored in a refrigerator at −20° C.
• 1) A compound to be tested was subjected to 3-times gradient dilution with the DMSO, with 10 concentration gradients and an initial concentration of 10 mM. • 2) A positive compound (Finerenone) was subjected to 3-times gradient dilution with the DMSO, with 10 concentration gradients and an initial concentration of 1 mM. • 3) 1000× positive control (1 mM, Finerenone) and 1000× negative control (100% DMSO) were prepared. • 4) A compound plate was sealed and shaken for 5 minutes.
• 5) All cells were cultured by ATCC standard operation, and HEK293T was experimented in an exponential growth phase. • 6) A culture medium supernatant was gently discarded. The cells were washed with PBS twice.
(3) The cells were digested with pancreatin digestive juice, the digestion was stopped with a complete culture solution, and then the cells were collected and counted.
(4) 6×10^6 HEK293T cells were inoculated into a 100 mm cell culture dish.
(5) The culture dish inoculated with the cells was cultured in a 5% CO2 incubator at 37° C. for 16 hours overnight.
• 1) Lipofectamine® 3000&P3000 transfection reagents were placed at room temperature. • 2) The Lipofectamine® 3000 reagent was added into an Opti-MEM™ culture medium, and meanwhile, the P3000, the plasmid and the Opti-MEM™ culture medium were added into another tube, taking care not to touch the tube wall. • 3) The mixture was mixed evenly by a pipette, and allowed to stand at room temperature for 5 minutes. • 4) The plasmid was added into the diluted transfection reagent, mixed evenly by a pipette, and allowed to stand at room temperature for 20 minutes. • 5) The transfection reagent mixed with the plasmid was added into a […] cell culture dish. • 6) The culture dish was cultured in a 5% CO2 incubator at 37° C. for 5 hours to 6 hours.
• 1) 25 nL of diluted compound was transferred to a cell culture plate with Echo655. • 2) The cells (referring to step 1.3) were inoculated into a 384 cell culture plate, with 17,000 cells, 25 μL of phenol red-free DMEM culture medium containing 5% CFBS and 0.8 nM Aldosteron per well.
(3) The cell culture plate was cultured in a 5% CO2 incubator at 37° C. for 18 hours to 20 hours overnight.
• 1) A Britelite plus detection reagent was placed at room temperature. 2) The 384 cell plate was placed at room temperature. • 3) 25 μL of Britelite plus detection reagent was added into each well of the cell culture plate. • 4) A luminescence was detected with Envision.
• 1) a firefly luciferase signal was obtained by reading the Luminescence to calculate an inhibition rate; • 2) % inhibition rate=100−[(RLU compound−avgRLU positive control)/(RLU negative control−avgRLU positive control)×100%, wherein the avgRLU positive control was an average value of Luminescences of all positive control wells in the whole plate; the avgRLU negative control was an average value of Luminescences of all negative control wells in the whole plate; and the RLU compound was Luminescence values of compounds to be tested with different concentrations; and • 3) IC50 of the compound was calculated by Graphpad8.0 Drawing software.
As for `CCOc1ncc(C)c2c1C(c1ccc(C#N)cc1OC)C(c1ncco1)=C(C)N2` (stereo not drawn) [Example 1], the negative logarithm of the IC50 (pIC50) was 6.72.
The same measure for `CCOc1ncc(C)c2c1C(c1ccc(C#N)cc1OC)C(c1nnco1)=C(C)N2` (stereo not drawn) [Example 2, 4-(5-ethoxy-2,8-dimethyl-3-(1,3,4-oxadiazole-2-yl)-1,4-dihydro-1,6-naphthyridine-4-yl)-3-methoxybenzonitrile]: 7.31.
The same measure for `CCOc1ncc(C)c2c1C(c1ccc(C#N)cc1OC)C(c1nnc(C)o1)=C(C)N2` (stereo not drawn) [Example 3, 4-(5-ethoxy-2,8-dimethyl-3-(5-methyl-1,3,4-oxadiazole-2-yl)-1,4-dihydro-1,6-naphthyridine-4-yl)-3-methoxybenzonitrile]: 6.95.
The same measure for `CCOc1nc2c(c3c1C(c1ccc(C#N)cc1OC)C(C(N)=O)=C(C)N3)CCC2` (stereo not drawn) [Example 4, 4-(4-cyano-2-methoxyphenyl)-5-ethoxy-2-methyl-4,7,8,9-tetrahydrocyclopentane-1H-cyclopentamide]: 6.95; for `COc1cc(C#N)ccc1C1C(C#N)=C(C)Nc2c1ccc1c2CCC1` (stereo not drawn) [Example 5, 4-(4-cyano-2-methoxyphenyl)-2-methyl-4,7,8,9-tetrahydrocyclopentane-3-carbonitrile]: 6.63; for `CCOc1ncc(C)c2c1C(c1ccc(C#N)c3c1OCCC3)C(C(N)=O)=C(C)N2` (stereo not drawn) [Example 6, 4-(5-cyanored-8-yl)-5-ethoxy-2,8-dimethyl-1,4-dihydro-1,6-naphthyridine-3-formamide]: 7.67.
Regarding `COc1cc(C#N)ccc1C1C(C#N)=C(C)Nc2c(C)cn3nccc3c21` (stereo not drawn) [Example 7, 10-(4-cyano-2-methoxyphenyl)-6,8-dimethyl-7H,10H-pyrazolo[3,2-f]1,6-naphthyridine-9-carbonitrile], the pIC50 was 6.49.
The same measure for `COc1cc(C#N)ccc1C1C(C#N)=C(C)Nc2sc3ccccc3c21` (stereo not drawn) [Example 8, 4-(4-cyano-2-methoxyphenyl)-2-methyl-1,4-dihydrobenzo[4,5]thieno[2,3-b]pyridine-3-carbonitrile]: 7.69.
Take `CCOc1nn(C)c2c1C(c1ccc(C#N)cc1OC)C(C#N)=C(C)N2` (stereo not drawn) [Example 9, 4-(4-cyano-2-methoxyphenyl)-3-ethoxy-1,6-dimethyl-4,7-dihydropyrazolo[3,4-b]pyridine-5-carbonitrile]: the pIC50 was 6.18.
The same measure for `COc1cc(C#N)ccc1C1C(C#N)=C(C)Nc2c(C)cc3nncn3c21` (stereo not drawn) [Example 10, 9-(4-cyano-2-methoxyphenyl)-5,7-dimethyl-6,9-dihydro[1,2,4]triazolo[4,3-a][1,5]naphthyridine-8-carbonitrile]: 6.46; for `CCOc1ncc(C)c2c1C(c1ccc(C#N)c3c1OCC3)C(C(N)=O)=C(C)N2` (stereo not drawn) [Example 11, 4-(4-cyano-2,3-dihydrobenzofuran-7-yl)-5-ethoxy-2,8-dimethyl-1,4-dihydro-1,6-naphthyridine-3-formamide]: 7.04; for `CCOc1nc2ccccc2c2c1C(c1ccc(C#N)cc1OC)C(C#N)=C(C)N2` (stereo not drawn) [Example 12, 4-(4-cyano-2-methoxyphenyl)-5-ethoxy-2-methyl-1H,4H-benzo[h]-1,6-naphthyridine-3-carbonitrile]: 6.67.
For `CCOc1nc2ccsc2c2c1C(c1ccc(C#N)cc1OC)C(C(N)=O)=C(C)N2` (stereo not drawn) [Example 13, 6-(4-cyano-2-methoxyphenyl)-5-ethoxy-8-methyl-6,9-dihydrothieno[3,2-h][1,6]naphthyridine-7-formamide] the value was 6.63; for `CCOc1ncc(C)c2c1C(c1ccc(C#N)c3c1OCO3)C(C(N)=O)=C(C)N2` (stereo not drawn) [Example 14, 4-(7-cyanobenzo[d][1,3]dioxacyclopenten-4-yl)-5-ethoxy-2,8-dimethyl-1,4-dihydro-1,6-naphthyridine-3-formamide], 7.34; for `CC1=C(C(N)=O)C(c2ccc(C#N)c3c2OCC3)c2c(OC3CCCC3)ncc(C)c2N1` (stereo not drawn) [Example 15, 4-(4-cyano-2,3-dihydrobenzofuran-7-yl)-5-cyclopentoxy-2,8-dimethyl-1,4-dihydro-1,6-naphthyridine-3-formamide], 7.74.
The same measure for `CC1=C(C(N)=O)C(c2ccc(C#N)c3c2OCC3)c2c(OCC3CC(F)(F)C3)ncc(C)c2N1` (stereo not drawn) [Example 16]: 7.47.
On to `CC1=C(C(N)=O)C(c2ccc(C#N)c3c2OCC3)c2c(OC(F)F)ncc(C)c2N1` (stereo not drawn) [Example 17, 4-(4-cyano-2,3-dihydrobenzofuran-7-yl)-5-(difluoromethoxy)-2,8-dimethyl-1,4-dihydro-1,6-naphthyridine-3-formamide], for which the pIC50 is 7.72.
For the compound `CC1=C(C(N)=O)C(c2ccc(C#N)c3c2OCC3)c2c(OC3CC3)ncc(C)c2N1` (stereo not drawn) [Example 18, 4-(4-cyano-2,3-dihydrobenzofuran-7-yl)-5-cyclopropoxy-2,8-dimethyl-1,4-dihydro-1,6-naphthyridine-3-formamide], the negative logarithm of the IC50 (pIC50) is 7.55.
For `CC1=C(C(N)=O)C(c2ccc(C#N)c3c2OCC3)c2c(OCC3CC3)ncc(C)c2N1` (stereo not drawn) [Example 19, 4-cyano-2,3-dihydrobenzofuran-7-yl-5-cyclopropylmethoxy-2,8-dimethyl-1,4-dihydro-1,6-naphthyridine-3-formamide] the value was 7.56; for `CC1=C(C(N)=O)C(c2ccc(C#N)c3c2OCC3)c2c(OC(C)C)ncc(C)c2N1` (stereo not drawn) [Example 20, 4-(4-cyano-2,3-dihydro-1-benzofuran-7-yl)-5-isopropoxy-2,8-dimethyl-1,4-dihydro-1,6-naphthyridine-3-formamide], 7.82; for `CC1=C(C(N)=O)C(c2ccc(C#N)c3c2OCC3)c2c(OC3CCC3)ncc(C)c2N1` (stereo not drawn) [Example 21, 4-(4-cyano-2,3-dihydrobenzofuran-7-yl)-5-cyclobutoxy-2,8-dimethyl-1,4-dihydro-1,6-naphthyridine-3-formamide], 7.69.
For `CC1=C(C(N)=O)C(c2ccc(C#N)c3c2OCC3)c2c(OCC3CCC3)ncc(C)c2N1` (stereo not drawn) [Example 22] the value was 8.06.
Regarding `CC1=C(C(N)=O)C(c2ccc(C#N)c3c2OCC3)c2c(OC(F)(F)F)ncc(C)c2N1` (stereo not drawn) [Example 23, 4-cyano-2,3-dihydrobenzofuran-7-yl-2,8-dimethyl-5-trifluoromethoxy-1,4-dihydro-1,6-naphthyridine-3-formamide], the negative logarithm of the IC50 (pIC50) is 7.61.
The same measure for `CC1=C(C(N)=O)C(c2ccc(C#N)c3c2OCC3)c2c(OCC(F)(F)F)ncc(C)c2N1` (stereo not drawn) [Example 24, 4-cyano-2,3-dihydrobenzofuran-7-yl-2,8-dimethyl-5-(2,2,2-trifluoroethoxy)-1,4-dihydro-1,6-naphthyridine-3-formamide]: 8.10; for `CCOc1ncc(C)c2c1C(c1ccc(C#N)c3c1OCCO3)C(C(N)=O)=C(C)N2` (stereo not drawn) [Example 25, 4-(8-cyano-2,3-dihydrobenzo[b][1,4]dioxin-5-yl)-5-ethoxy-2,8-dimethyl-1,4-dihydro-1,6-naphthyridine-3-formamide]: 7.43.
For `CCOc1ncc(C)c2c1[C@H](c1ccc(C#N)c3c1OCCC3)C(C(N)=O)=C(C)N2` [Example 32, (S)-4-(5-cyanored-8-yl)-5-ethoxy-2,8-dimethyl-1,4-dihydro-1,6-naphthyridine-3-formamide], the pIC50 is 8.10.
Turning to `CCOc1ncc(C)c2c1[C@H](c1ccc(C#N)c3c1OCCO3)C(C(N)=O)=C(C)N2` [Example 40, (S)-4-(8-cyano-2,3-dihydrobenzo[b][1,4]dioxin-5-yl)-5-ethoxy-2,8-dimethyl-1,4-dihydro-1,6-naphthyridine-3-formamide], the pIC50 was 7.90.
